Laboratory results: US20210106581A1, “Treatment Of Liver Diseases” (Melior Pharmaceuticals I, Inc., priority 2018, published 2021)
Entries after “also recorded” stand apart in the source; their conditions may differ.

Columns and labels:
Format in all cases: in vivo
[1] = system: male BALB/c mice with CCl4-induced liver fibrosis; test: CCl4-induced liver fibrosis mouse model (Example 3)
Method: In the following study, 6 to 7 week old male BALB/c mice (25-30 g) were randomized based on body weight after 7-day of CCl4 injections (3 times). Mice were fed standard rodent chow and water ad libitum. The mice were divided into 4 groups, with 12 mice per group. The mice were administered a dose volume of 10 mL/kg (MLR-1023), 2.5 mL/kg (CCl4), each in a formulation of 20% HBPCD/saline and corn oil intraperitoneally (i.p.). The dose level of MLR-1023 was 30 and 100 mg per kg, and the dose level of CCl4 was 5%. The dose frequency of MLR-1023 was once daily (QD), and the dose frequency of CCl4 was 3 times a week (Monday, Wednesday, and Friday). The study duration was 28 days, with MLR-1023 treatment started from day 8 to day 28. CCl4 was obtained from Sigma-Aldrich (St. Louis, Mo.). A commercial kit was used for analyzing liver hydroxyproline content (BioVision, Inc.; Milpitas, Calif.). ALT and AST kits were purchased from BIOO Science (Austin, Tex.). All other reagents used in the study were of analytical grade. Male BALB/c mice were obtained from Charles River Laboratories (Wilmington, Mass.). On the last day of the study all mice were sacrificed by cervical dislocation. Blood/serum samples were collected for the assays of liver enzymes (ALT and AST). Livers were rapidly dissected and part of each liver was cut and fixed in formaldehyde saline (4%) solution for histological analysis; the remainder of the liver was snap frozen in liquid nitrogen, and stored at −70° C. until use. Starting on Day 1, animals were administered i.p. with 5% CCl4 or corn oil (vehicle for CCl4 solution) three days per week (Monday, Wednesday, and Friday) for 4 weeks. CCl4 was formulated as a […] with the dose volume of 2.5 mL/kg, and was freshly formulated on a weekly basis. Animals were weighed weekly. Test compounds and vehicle administrations were performed from Day 8 to Day 28. At the end of study, blood was drawn through retro-orbital punctures for serum collection. The whole liver was removed. One lobe was placed in a tube containing 10% formalin for histopathology, the remainder of the liver lobes were collected and snap frozen for further hydroxyproline assay. Homogenized liver samples were evaluated for hydroxyproline content to assess hepatic collagen levels. Serum was separated by centrifugation at 4° C. and analyzed immediately or stored at −70° C. Serum ALT and AST levels were determined by colorimetric method and using procedures described by the kit manufacturers. Hepatic hydroxyproline content was measured by colorimetric method and expressed as μg/mg wet liver weight. Livers were removed at necropsy and fixed in 10% buffered formalin. Sections of liver were processed routinely, sectioned at approximately 4 microns, and stained with hematoxylin and eosin (H&E) or picrosirius red (PSR). Glass slides were evaluated using light microscopy by a board-certified veterinary/toxicology pathologist in a blind manner. Two sections from each animal were examined. Five animals from each group were randomly chosen for histology analysis. The severity of histologic findings was scored using the Society of Toxicologic Pathology best practices (1=minimal, 2=mild, 3=moderate, 4=marked, 5=Severe). Fibrosis value is corresponding to the fraction of centrilobular areas affected by fibrosis (1=about <10%, 2=about 11-30%, 3=about […], 4=about […], 5=about 71-100%). Liver fibrosis is characterized by increased numbers of fibroblasts and collagen fibers in liver sinusoids that partially, or completely, bridged centrilobular areas. PSR staining severity generally correlated with the mean severity of fibrosis. Overall increased collagen deposition and bridging fibrosis are identified with PSR stain. […]

[2] = system: male C57BL/6 mice on modified high fat diet (mHFD); test: Modified high fat diet (mHFD) mouse model, serum and liver triglycerides (Example 1); conditions: 30 mg/kg or 100 mg/kg i.p. once daily, 8 weeks
Method: The animal model was performed essentially as described in Cong et al., Life Sciences, 2008, 82, 983-990. Briefly, male C57BL/6 mice at 6 weeks of age were fed, ad libitum, a modified high fat diet (mHFD) provided by Research Diets, and described in Cong et al. One group of control animals (n=11) remained on standard diet. All animals remained on their respective diets for 23 weeks (29 weeks of age). At that time, animals continued to remain on their respective diets and treatment regimens began. The group of animals on standard diet and one group of animals on mHFD (n=9) received vehicle administered by intraperitoneal injection, once daily. Two additional groups of animals on mHFD (n=8) received Compound 102 administration by intraperitoneal injection, once daily at either 30 mg/kg or 100 mg/kg. Compound 102 was formulated in, and the vehicle used was, 20% hydroxypropyl beta cyclodextrin (HPBCD). Treatment regimen continued for an additional 8 weeks while the animals remained on their respective diets. At the end of 8 weeks of treatment, animals were fasted for 6 hours. […] Serum triglycerides and liver triglyceride were measured from the respective samples using Triglyceride assay kit (Wako Diagnostics, Richmond, Va.; Cat No 461-8992). Data were averaged and are expressed as the average SEM. Data were analyzed by two-way repeated measures ANOVA followed by a Dunnett's post hoc test. […]

[3] = system: male C57BL/6NCrl mice on modified high fat diet (mHFD); test: Extended mHFD NASH mouse study, 8-week treatment (Example 2)
Excerpt: The modified high fat diet (mHFD) was obtained from Research Diets, Inc. (New Brunswick, N.J.) and was formulated according to Cong et al., supra. The mHFD contained 60% fat, 14% protein, and 26% carbohydrate, with total energy content of 21.0 kJ/g. The mHFD contained a low concentration of choline bicitrate a (0.6 g/kg) and DL-methionine (1.5 g/kg). Fatty acid composition of the fats (mainly from lard) in mHFD was 36% saturated fatty acids, 45% monounsaturated fatty acids, and 19% polyunsaturated fatty acids (PUFA).
Male C57BL/6NCrl mice were obtained from Charles River Laboratories (Wilmington, Mass.). Mice were maintained in microisolator cages, in groups of no more than 4 animals per cage, and on a 12-hour light cycle. Food and water were provided ad libitum. On the last day of the study, all mice were sacrificed by cervical dislocation after a 4-hour food deprivation. Livers were rapidly dissected and part of each liver was cut and fixed in formaldehyde saline (4%) solution for histological analysis. The rest of the liver was snap frozen in liquid nitrogen, and stored at −70° C. until use.
Mice were acquired at 3-4 weeks of age (body weight of about 11-12 g). Mice were fed a standard chow (Control group) or mHFD (Model group) for 22 weeks. […] At week-22, based on body weight consideration, the mHFD-fed mice were screened and distributed in a balanced fashion into 3 groups for the compound treatment study (Table 1).
During the 8-week drug treatment phase, all animals (except for standard-chow controls) remain on the mHFD diet. During the treatment period, the summary of measurement schedule is as below: • 1) Body weight (BW) was taken once a week. • 2) Terminal blood and whole Liver were collected. • 3) Hepatic histology (NAS score) was assessed.
Livers were removed at necropsy and fixed in 10% buffered formalin. Sections were processed to paraffin by routine histological methods and 4 μm sections were stained with hematoxylin and eosin. Sections were evaluated under light microscopy by a board-certified veterinary pathologist for identification of proliferative lesions as well as severity scoring of lesions associated with steatohepatitis. The pathologist was blinded to the treatment status. Steatohepatitis parameters were scored and classified according to a standardized histological scoring system for NASH described by Kleiner et al., Hepatology, 2005, 41, 1313-1321. In brief, individual livers were evaluated for steatosis, lobular inflammation, and ballooning degeneration of hepatocytes, and given a score of (03) for steatosis and inflammation, and (02) for ballooning degeneration, using previously defined criteria (see below). An NAFLD activity score (NAS) was obtained by summing the individual parameter scores.
Steatosis Location: 0: Predominantly zone 3 (centrilobular); 1: Predominantly zone 1 (periportal); 2: Azonal (defined as when the pattern could not be fit into one of the other categories or marked architectural change); and 3: Panacinar (defined as involving all zones of the liver equally).
Inflammation: 0: No foci; 1: <2 foci per 200× field; 2: 2-4 foci/200× field; and 3: >4 foci/200× field.
Ballooning Degeneration: 0: None; 1: Few balloon cells; and 2: Many cells/prominent ballooning.
Data are expressed as the average±SEM at each week and analyzed by Unpaired T-tests as applicable using Prism® software (GraphPad Software, Inc., Las Jolla, Calif.). A p-value of less than 0.05 indicates a significant difference between treatment groups.

[4] = both treatments (30 and 100 mpk), H&E, FIG. 11

Cc1cccc(Oc2cnc(=O)[nH]c2)c1 [MLR-1023, tolimidone]
CCl4-induced collagen deposition ([1]; 100 mg per kg, 21-day treatment): significantly reduced
fibrosis percentage ([1]; 100 mg per kg, 21-day treatment, PSR): reduced
scores of hepatic inflammation ([1]; 100 mg per kg, H&E, vs CCl4-vehicle, FIG. 12): reduced
CCl4-induced increase of liver enzymes, especially AST ([1]; 21-day treatment, summary statement): mild improvement; also recorded: mild effects
serum AST levels ([1]; 30 and 100 mg per kg i.p. QD day 8-28, vs CCl4-vehicle, dose-dependent manner, FIG. 9): trended towards improving
hepatic hydroxyproline levels ([1]; 30 and 100 mg per kg i.p. QD day 8-28, vs CCl4-vehicle, dose-dependent manner, FIG. 10): significantly reduced
serum ALT levels ([1]; 30 and 100 mg per kg i.p. QD day 8-28, vs CCl4-vehicle, FIG. 9): did not significantly affect
scores of hepatic necrosis/mineralization ([1]; 30 and 100 mg per kg, H&E, vs CCl4-vehicle, FIG. 12): trended towards reducing; also recorded: reduced
inflammation (pathologist's general assessment) [1, 4]: still present
necrosis (pathologist's general assessment) [1, 4]: dose-related effect
fibrosis (pathologist's general assessment) ([1]; both treatments (30 and 100 mpk), PSR, FIG. 11): dose-related effect
circulating serum triglyceride levels ([2]; 6 h fasted, FIG. 1): significantly reduced
accumulation of triglycerides in the liver ([2]; FIG. 2): significantly reduced
NAFLD activity score (NAS) ([3]; 30 mpk (30 mg/kg) IP, vs MD-vehicle, FIG. 6): significantly reduced
body weight ([3]; 30 mpk IP, 8-week treatment, vs MD-vehicle, FIG. 3): significantly reduced
liver weight ([3]; 30 mpk IP, 8-week treatment, vs MD-vehicle, FIG. 4): significantly reduced
TG content in liver ([3]; 30 mpk IP, vs MD-vehicle, FIG. 2): significantly reduced
body weight ([3]; 100 mpk IP, 8-week treatment, vs MD-vehicle, FIG. 3): trend in reduction (p=0.056)
liver weight ([3]; 100 mpk IP, 8-week treatment, vs MD-vehicle, FIG. 4): significantly reduced
hepatocellular ballooning ([3]; 100 mpk, FIG. 7): significantly reduced
body weight ([3]; FIG. 3 legend, dose not stated): significantly reduced
liver weight ([3]; FIG. 4 legend, dose not stated): significantly reduced
hepatocellular ballooning (histology) ([3]; dose not stated, FIGS. 7, 8A, 8B): reduced amount
steatosis (histology) ([3]; dose not stated, FIGS. 8A, 8B): reduced
